Laboratory results reported in ChEMBL document CHEMBL5370687 (ACS Med Chem Lett, 2023).

Target: T1, Protein-glutamine gamma-glutamyltransferase (Homo sapiens, UniProt P21980)
T1 sequence (P21980 whole entry): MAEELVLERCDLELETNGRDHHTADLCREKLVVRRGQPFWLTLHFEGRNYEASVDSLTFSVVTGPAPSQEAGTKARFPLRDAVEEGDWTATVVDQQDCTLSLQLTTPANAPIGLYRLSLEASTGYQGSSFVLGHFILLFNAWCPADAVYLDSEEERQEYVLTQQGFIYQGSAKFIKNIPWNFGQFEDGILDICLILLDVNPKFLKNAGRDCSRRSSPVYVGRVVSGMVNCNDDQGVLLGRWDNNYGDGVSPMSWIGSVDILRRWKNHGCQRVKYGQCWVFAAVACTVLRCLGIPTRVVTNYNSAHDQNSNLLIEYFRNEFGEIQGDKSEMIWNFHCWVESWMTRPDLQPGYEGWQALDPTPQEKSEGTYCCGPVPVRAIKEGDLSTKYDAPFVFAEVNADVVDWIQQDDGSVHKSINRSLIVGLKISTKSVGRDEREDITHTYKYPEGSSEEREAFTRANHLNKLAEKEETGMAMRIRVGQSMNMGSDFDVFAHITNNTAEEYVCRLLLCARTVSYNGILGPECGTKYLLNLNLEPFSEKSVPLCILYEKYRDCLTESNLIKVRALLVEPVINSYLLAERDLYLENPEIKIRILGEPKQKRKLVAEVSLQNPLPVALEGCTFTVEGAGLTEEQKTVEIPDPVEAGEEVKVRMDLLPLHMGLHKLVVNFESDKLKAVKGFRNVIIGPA
Experiment: Inhibition of human recombinant His6-tagged TG2 expressed in insect cells assessed as reduction in incorporation of dansylcadaverine into N,N-dimethylcasein measured for 30 mins by fluorescence assay
Design: species or system Insect cell

Compound | IC50 [nM]
CNC(=O)C(=O)CC[C@H](NC(=O)C1Cc2ccccc2C1)C(=O)Nc1cccn(CC(=O)NC2C3CC4CC(C3)CC2C4)c1=O (stereo not given in full) | ≤ 25
CNC(=O)C(=O)CC[C@H](NC(=O)c1cc2cc(Br)ccc2s1)C(=O)Nc1cccn(CC(=O)NC2C3CC4CC(C3)CC2C4)c1=O (stereo not given in full) | ≤ 25
CNC(=O)C(=O)CC[C@H](NC(=O)c1cc2ccccc2o1)C(=O)Nc1cccn(CC(=O)NC2C3CC4CC(C3)CC2C4)c1=O (stereo not given in full) | ≤ 25
CNC(=O)C(=O)CC[C@H](NC(=O)c1cc2ccccc2s1)C(=O)Nc1cccn(CC(=O)NC2C3CC4CC(C3)CC2C4)c1=O (stereo not given in full) | ≤ 25

Next, values leading:

IC50 [nM] | Compound
≤ 25 | CNC(=O)C(=O)CC[C@H](NC(=O)c1cc2c(Br)cccc2o1)C(=O)Nc1cccn(CC(=O)NC2C3CC4CC(C3)CC2C4)c1=O (stereo not given in full)
≤ 25 | CNC(=O)C(=O)CC[C@H](NC(=O)c1cc2c(F)c(F)ccc2[nH]1)C(=O)Nc1cccn(CC(=O)NC2C3CC4CC(C3)CC2C4)c1=O (stereo not given in full)
< 250 | CNC(=O)C(=O)CC[C@H](NC(=O)c1[nH]c2ccccc2c1C)C(=O)Nc1cccn(CC(=O)NC2C3CC4CC(C3)CC2C4)c1=O (stereo not given in full)
≤ 25 | CNC(=O)C(=O)CC[C@H](NC(=O)c1oc2ccccc2c1Cl)C(=O)Nc1cccn(CC(=O)NC2C3CC4CC(C3)CC2C4)c1=O (stereo not given in full)
≤ 25 | CNC(=O)C(=O)CC[C@H](NC(=O)c1cc2cccc(F)c2s1)C(=O)Nc1cccn(CC(=O)NC2C3CC4CC(C3)CC2C4)c1=O (stereo not given in full)
≤ 25 | CNC(=O)C(=O)CC[C@H](NC(=O)c1cc2ccccc2[nH]1)C(=O)Nc1cccn(CC(=O)NC2C3CC4CC(C3)CC2C4)c1=O (stereo not given in full)
